According to patent EP4775575A1, “COMPOUND USED AS CDK4 KINASE INHIBITOR AND USE THEREOF” (TYK Medicines, Inc., priority 2023, dated 2025):

What was measured:
[1] = tested on: human ovarian cancer cells A2780; test: Cell anti-proliferation assay (MTT), A2780; type: cell-based; details: Homo sapiens, 120 h, incubated for 5 days
Description: (§1) Human breast cancer cells MCF-7, human ovarian cancer cells A2780, human mantle cell lymphoma cells JEKO-1. DMEM medium (Bio-Channel), DMSO (dimethyl sulfoxide), MTT (thiazolyl blue), 0.25% EDTA-Trypsin (trypsin digestive solution), 1×PBS (phosphate buffered saline, pH 7.2), 96-well plate (Corning), fetal bovine serum (FBS), 10,000 U/mL penicillin-G/streptomycin, high-speed refrigerated centrifuge (EPPENDORF 5810R), and microplate reader (Tecan Spark).
(§2) • A) Tumor cells were cultured in DMEM (high glucose, containing 10% FBS and 100 U/mL penicillin-G/streptomycin) at 37 °C, 5% CO2 and saturated humidity until 80-90% confluence. • B) The medium in the 10 cm culture dish was removed. • C) Cells were rinsed once with 10 mL of 1×PBS. • D) 4 mL of 0.25% EDTA-Trypsin was added, and the cells were digested in a 37 °C, 5% CO2 incubator for 5 minutes. The mixture was transferred to a 15 mL centrifuge tube, centrifuged at 200 g for 5 minutes, and the supernatant was discarded to obtain cell pellet. • E) The cells were resuspended in 4 mL of DMEM medium, counted, and adjusted to 50,000 cells/mL. • F) 100 µL of cell suspension was added to each well of a 96-well plate, and the plate was incubated overnight at 37 °C in a 5% CO2 incubator.
(§3) • A) Gradient dilution solutions of the test compounds were prepared: the test compound was prepared into a 1 mM stock solution. Then 1.5 µL of the stock solution was dissolved in 1.5 mL of DMSO-free medium, followed by 3-fold serial gradient dilution with medium containing 0.1% DMSO to give 9 concentrations.
(§4) • A) The cell culture plate was taken out, and 10 µL of 5 mg/mL MTT was added in a biological safety cabinet; • B) The plate was returned to the incubator and incubated for another 3 hours; • C) The cell culture plate was taken out and the medium was removed, 100 µL of isopropanol (containing 0.4 mM HCl, 0.1% NP-40) was added, and the plate was shaken at room temperature for 30 minutes; • D) The absorbance at 570 nm was measured using a TECAN microplate reader.

[2] = tested on: human mantle cell lymphoma cells JEKO-1; test: Cell anti-proliferation assay (MTT), JEKO-1; type: cell-based; details: Homo sapiens, 120 h, JEKO-1 cells, incubated for 5 days
Description: as §1, §2, §3, §4

[3] = tested on: Human breast cancer cells MCF-7; test: Cell anti-proliferation assay (MTT), MCF-7; type: cell-based; details: Homo sapiens, MCF7, 120 h, MCF-7 cells, incubated for 5 days
Description: as §1, §2, §3, §4

[4] = biological target: CDK4/CycD1 (Homo sapiens, UniProt P11802); test: Kinase activity assay (MSA, EZ Reader) against CDK4
[5] = biological target: T1, CDK6/CyclinD3 (Homo sapiens, UniProt Q00534); test: Kinase activity assay (MSA, EZ Reader) against CDK6; type: biochemical; details: CDK6/CyclinD3 5.00 nM, ATP 350 µM, FL-Peptide34, 10mM MgCl2
T1 construct: purchased Carna 04-107
T1 sequence (Q00534 whole entry): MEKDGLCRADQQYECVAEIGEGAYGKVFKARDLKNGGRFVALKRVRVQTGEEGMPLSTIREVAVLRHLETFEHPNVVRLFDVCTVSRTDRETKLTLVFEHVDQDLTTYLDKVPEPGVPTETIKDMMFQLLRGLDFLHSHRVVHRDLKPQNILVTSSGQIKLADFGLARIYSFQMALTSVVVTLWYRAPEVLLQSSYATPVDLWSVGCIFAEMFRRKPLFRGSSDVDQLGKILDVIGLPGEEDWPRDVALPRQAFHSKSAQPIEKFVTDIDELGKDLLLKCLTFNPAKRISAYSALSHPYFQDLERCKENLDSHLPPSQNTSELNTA
T1 sequence (P30281 whole entry partner): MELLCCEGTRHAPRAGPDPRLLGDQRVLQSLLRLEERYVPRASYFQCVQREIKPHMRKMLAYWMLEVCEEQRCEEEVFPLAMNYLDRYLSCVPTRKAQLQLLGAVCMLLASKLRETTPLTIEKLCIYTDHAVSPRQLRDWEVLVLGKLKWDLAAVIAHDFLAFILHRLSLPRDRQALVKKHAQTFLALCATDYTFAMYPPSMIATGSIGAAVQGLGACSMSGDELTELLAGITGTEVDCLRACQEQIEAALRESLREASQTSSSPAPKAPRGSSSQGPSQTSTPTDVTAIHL

CDK4/CycD1, sequence (P11802 whole entry): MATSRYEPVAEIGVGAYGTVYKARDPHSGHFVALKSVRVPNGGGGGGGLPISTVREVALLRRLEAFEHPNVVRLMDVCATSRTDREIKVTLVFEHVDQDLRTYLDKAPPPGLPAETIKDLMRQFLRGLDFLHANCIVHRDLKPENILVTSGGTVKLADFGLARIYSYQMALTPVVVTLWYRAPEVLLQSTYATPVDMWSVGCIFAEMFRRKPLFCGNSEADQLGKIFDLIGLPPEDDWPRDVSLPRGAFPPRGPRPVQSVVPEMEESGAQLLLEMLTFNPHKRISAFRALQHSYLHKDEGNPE

C[C@H]1CCN(c2ccc(F)cc2F)c2nc3c(F)cc(-c4nc(N[C@@H]5CCOC[C@H]5O)ncc4Cl)cc3n21 [TC-13]
IC50 [1]: ≤ 0.5 µM
IC50 [2]: ≤ 0.5 µM
IC50 [3]: ≤ 0.5 µM
IC50 [4]: 0.0033 µM
IC50 [5]: 0.0744 µM

CC(C)n1c(N(C)C)nc2c(F)cc(-c3nc(N[C@@H]4CCOC[C@H]4O)ncc3Cl)cc21 [TB-1]
IC50 [1]: ≤ 0.5 µM
IC50 [2]: ≤ 0.5 µM
IC50 [3]: ≤ 0.5 µM
IC50 [4]: 0.0037 µM
IC50 [5]: 0.0678 µM

CC(C)n1c(N(C)C)nc2c(F)cc(-c3nc(N[C@H]4CC[C@H](NS(C)(=O)=O)CC4)ncc3Cl)cc21 [TB-5]
IC50 [1]: ≤ 0.5 µM
IC50 [2]: ≤ 0.5 µM
IC50 [3]: ≤ 0.5 µM
IC50 [4]: 0.00424 µM
IC50 [5]: 0.0716 µM

CC(C)n1c(N2CCOC2=O)nc2c(F)cc(-c3nc(NC4CCN(S(C)(=O)=O)CC4(F)F)ncc3Cl)cc21 (stereo not shown) [TB-35]
IC50 [1]: ≤ 0.5 µM
IC50 [2]: ≤ 0.5 µM
IC50 [3]: ≤ 0.5 µM
IC50 [4]: 0.0155 µM
IC50 [5]: 0.167 µM

CC(C)n1c(N2CCCOC2=O)nc2c(F)cc(-c3nc(N[C@@H]4CCOC[C@H]4O)ncc3Cl)cc21 [TB-25]
IC50 [1]: ≤ 0.5 µM
IC50 [2]: ≤ 0.5 µM
IC50 [3]: 0.5 to 2 µM
IC50 [4]: 0.0434 µM
IC50 [5]: > 0.5 µM

CC(C)n1c(N(C)C)nc2c(F)cc(-c3nc(NC4CCN(S(C)(=O)=O)CC4)ncc3Cl)cc21 [TB-3, 6-(5-chloro-2-((1-(methylsulfonyl)piperidin-4-yl)amino)pyrimidin-4-yl)-4-fluoro-1-isopropyl-N,N-dimethyl-1H-benzo[d]imidazol-2-amine]
IC50 [1]: ≤ 0.5 µM
IC50 [2]: ≤ 0.5 µM
IC50 [3]: ≤ 0.5 µM
IC50 [4]: 0.00697 µM
IC50 [5]: 0.0749 µM

CC(C)n1c(N2CCCC2)nc2c(F)cc(-c3nc(N[C@@H]4CCOC[C@H]4O)ncc3Cl)cc21 [TB-11, (3S,4R)-4-((5-chloro-4-(4-fluoro-1-isopropyl-2-(pyrrolidin-1-yl)-1H-benzo[d]imidazol-6-yl)pyrimidin-2-yl)amino)tetrahydro-2H-pyran-3-ol]
IC50 [1]: ≤ 0.5 µM
IC50 [2]: ≤ 0.5 µM
IC50 [3]: ≤ 0.5 µM
IC50 [4]: 0.00645 µM
IC50 [5]: 0.202 µM

CCN1CCN(Cc2ccc(Nc3ncc(Cl)c(-c4cc(F)c5nc(N(C)C)n(C(C)C)c5c4)n3)nc2)CC1 [TB-16]
IC50 [1]: ≤ 0.5 µM
IC50 [2]: ≤ 0.5 µM
IC50 [3]: ≤ 0.5 µM
IC50 [4]: 0.00692 µM
IC50 [5]: 0.0446 µM

CC(C)n1c(N2CC(O)C2)nc2c(F)cc(-c3nc(N[C@@H]4CCOC[C@H]4O)ncc3Cl)cc21 [TB-14, 1-(6-(5-chloro-2-(((3S,4R)-3-hydroxytetrahydro-2H-pyran-4-yl)amino)pyrimidin-4-yl)-4-fluoro-1-isopropyl-1H-benzo[d]imidazol-2-yl)azetidin-3-ol]
IC50 [1]: ≤ 0.5 µM
IC50 [2]: ≤ 0.5 µM
IC50 [3]: ≤ 0.5 µM
IC50 [4]: 0.00637 µM
IC50 [5]: 0.235 µM

CC(C)n1c(N2CCOC2=O)nc2c(F)cc(-c3nc(NC4CCN(S(C)(=O)=O)CC4)ncc3F)cc21 [TB-28]
IC50 [1]: ≤ 0.5 µM
IC50 [2]: ≤ 0.5 µM
IC50 [3]: ≤ 0.5 µM
IC50 [4]: 0.00857 µM
IC50 [5]: 0.154 µM

CC(C)n1c(N2CCOC2=O)nc2c(F)cc(-c3nc(NC4CCN(S(C)(=O)=O)CC4)ncc3Cl)cc21 [TB-26]
IC50 [1]: ≤ 0.5 µM
IC50 [2]: ≤ 0.5 µM
IC50 [3]: ≤ 0.5 µM
IC50 [4]: 0.0186 µM
IC50 [5]: 0.2 µM

CC(C)n1c(N2CCOC2=O)nc2c(F)cc(-c3nc(Nc4ccc(S(=O)(=O)NCCN(C)C)cc4)ncc3Cl)cc21 [TB-38, 4-((5-chloro-4-(4-fluoro-1-isopropyl-2-(2-oxooxazolidin-3-yl)-1H-benzo[d]imidazol-6-yl)pyrimidin-2-yl)amino)-N-(2-(dimethylamino)ethyl)benzenesulfonamide]
IC50 [1]: ≤ 0.5 µM
IC50 [2]: ≤ 0.5 µM
IC50 [3]: ≤ 0.5 µM
IC50 [4]: 0.0185 µM
IC50 [5]: 0.0766 µM

CC(C)n1c(N(C)CCO)nc2c(F)cc(-c3nc(N[C@@H]4CCOC[C@H]4O)ncc3Cl)cc21 [TB-9, (3S,4R)-4-((5-chloro-4-(4-fluoro-2-((2-hydroxyethyl)(methyl)amino)-1-isopropyl-1H-benzo[d]imidazol-6-yl)pyrimidin-2-yl)amino)tetrahydro-2H-pyran-3-ol]
IC50 [1]: ≤ 0.5 µM
IC50 [2]: ≤ 0.5 µM
IC50 [3]: 0.5 to 2 µM
IC50 [4]: 0.0401 µM
IC50 [5]: 0.223 µM

C[C@H]1CCN(CC(C)(C)O)c2nc3c(F)cc(-c4nc(N[C@@H]5CCOC[C@H]5O)ncc4Cl)cc3n21 [TC-7]
IC50 [1]: ≤ 0.5 µM
IC50 [2]: ≤ 0.5 µM
IC50 [3]: ≤ 0.5 µM
IC50 [4]: 0.0037 µM
IC50 [5]: 0.154 µM

CC(C)n1c(N2CC[C@@H](O)C2)nc2c(F)cc(-c3nc(N[C@@H]4CCOC[C@H]4O)ncc3Cl)cc21 [TB-7, (R)-1-(6-(5-chloro-2-(((3S,4R)-3-hydroxytetrahydro-2H-pyran-4-yl)amino)pyrimidin-4-yl)-4-fluoro-1-isopropyl-1H-benzo[d]imidazol-2-yl)pyrrolidin-3-ol]
IC50 [1]: ≤ 0.5 µM
IC50 [2]: ≤ 0.5 µM
IC50 [3]: ≤ 0.5 µM
IC50 [4]: 0.00294 µM
IC50 [5]: 0.113 µM

COC(=O)N(C)c1nc2c(F)cc(-c3nc(N[C@@H]4CCOC[C@H]4O)ncc3Cl)cc2n1C(C)C [TB-8, methyl (6-(5-chloro-2-(((3S,4R)-3-hydroxytetrahydro-2H-pyran-4-yl)amino)pyrimidin-4-yl)-4-fluoro-1-isopropyl-1H-benzo[d]imidazol-2-yl)(methyl)carbamate]
IC50 [1]: ≤ 0.5 µM
IC50 [2]: ≤ 0.5 µM
IC50 [3]: 0.5 to 2 µM
IC50 [4]: 0.0188 µM
IC50 [5]: 0.334 µM

CC(C)n1c(N(C)C)nc2c(F)cc(-c3nc(N[C@@H]4CCN(S(C)(=O)=O)C[C@H]4O)ncc3Cl)cc21 [TB-13, (3R,4R)-4-((5-chloro-4-(2-(dimethylamino)-4-fluoro-1-isopropyl-1H-benzo[d]imidazol-6-yl)pyrimidin-2-yl)amino)-1-(methylsulfonyl)piperidin-3-ol]
IC50 [1]: ≤ 0.5 µM
IC50 [2]: ≤ 0.5 µM
IC50 [3]: ≤ 0.5 µM
IC50 [4]: 0.00127 µM
IC50 [5]: 0.0186 µM

CC(C)n1c(N2CCOC2=O)nc2c(F)cc(-c3nc(Nc4ccc(S(=O)(=O)NCCN(C)C)cc4)nc4[nH]cnc34)cc21 [TB-70]
IC50 [1]: ≤ 0.5 µM
IC50 [2]: ≤ 0.5 µM
IC50 [3]: ≤ 0.5 µM
IC50 [4]: 0.0185 µM
IC50 [5]: 0.0766 µM

CN1CCCn2c1nc1c(F)cc(-c3nc(Nc4ccc(C#N)cc4)ncc3Cl)cc12 [TB-133, 4-((5-chloro-4-(9-fluoro-1-methyl-1,2,3,4-tetrahydrobenzo[4,5]imidazo[1,2-a]pyrimidin-7-yl)pyrimidin-2-yl)amino)benzonitrile]
IC50 [1]: ≤ 0.5 µM
IC50 [2]: ≤ 0.5 µM
IC50 [3]: ≤ 0.5 µM
IC50 [4]: 0.0179 µM
IC50 [5]: 0.0648 µM

CC(C)n1c(N2CCOC2=O)nc2c(F)cc(-c3nc(NC4CCN(S(=O)(=O)C(C)C)CC4)ncc3Cl)cc21 [TB-32]
IC50 [1]: ≤ 0.5 µM
IC50 [2]: ≤ 0.5 µM
IC50 [3]: ≤ 0.5 µM
IC50 [4]: 0.0123 µM
IC50 [5]: 0.145 µM

CNS(=O)(=O)c1ccc(Nc2ncc(Cl)c(-c3cc(F)c4nc5n(c4c3)C(C)CCN5C)n2)cc1 (stereo not shown) [TB-53, 4-((5-chloro-4-(9-fluoro-1,4-dimethyl-1,2,3,4-tetrahydrobenzo[4,5]imidazo[1,2-a]pyrimidin-7-yl)pyrimidin-2-yl)amino)-N-methylbenzenesulfonamide]
IC50 [1]: ≤ 0.5 µM
IC50 [2]: ≤ 0.5 µM
IC50 [3]: ≤ 0.5 µM
IC50 [4]: 0.0106 µM
IC50 [5]: 0.0569 µM

CC(C)n1c(N2CC[C@H](O)C2)nc2c(F)cc(-c3nc(N[C@@H]4CCOC[C@H]4O)ncc3Cl)cc21 [TB-6, (S)-1-(6-(5-chloro-2-(((3S,4R)-3-hydroxytetrahydro-2H-pyran-4-yl)amino)pyrimidin-4-yl)-4-fluoro-1-isopropyl-1H-benzo[d]imidazol-2-yl)pyrrolidin-3-ol]
IC50 [1]: ≤ 0.5 µM
IC50 [2]: ≤ 0.5 µM
IC50 [3]: 0.5 to 2 µM
IC50 [4]: 0.0108 µM
IC50 [5]: 0.19 µM

C[C@H]1CCN(c2ccc(C#N)cc2)c2nc3c(F)cc(-c4nc(N[C@@H]5CCOC[C@H]5O)ncc4Cl)cc3n21 [TC-17]
IC50 [1]: ≤ 0.5 µM
IC50 [2]: ≤ 0.5 µM
IC50 [3]: ≤ 0.5 µM
IC50 [4]: 0.0045 µM
IC50 [5]: > 0.5 µM
